According to patent publication US12110283B2, “Carbonic anhydrase targeting agents and methods of using same” (VisEn Medical, Inc., priority 2011, dated 2024):

Tests used:
[1] = tested on: HeLa tumors; experiment: Imaging of tumors in vivo using CA agents (planar reflectance and FMT); conditions: NU/NU mice, bilateral HeLa tumors, 2 nmoles i.v., 24 hrs post-injection
Protocol: In this experiment, NU/NU mice 6-8 weeks old (Charles River Laboratory, Wilmington, MA) were injected subcutaneously (s.c.) with about 2×10^6 HeLa cells bilaterally in each mammary fat pad. When tumors reached an approximate size of 3×3 mm, mice were injected intravenously (i.v.) with 2 nmoles of carbonic anhydrase agent C5 or nonbinding control agent D3 (5 mice/probe+2 mice/no probe as control) in 100 μL volume via tail vein. Imaging was conducted at 24 hrs post-injection using a Fluorescence Molecular Tomography system (VisEn Medical, Bedford, MA) that is commercially available.

[2] = tested on: HeLa tumors; experiment: Effect of acetazolamide treatment on carbonic anhydrase signal in HeLa tumor-bearing mice (FMT); assay type: in vivo; conditions: for accumulation in tumors as quantified by FMT (FIG. 5B): 24 hours
Protocol: HeLa tumor-bearing mice were randomized once their tumors reached the desired volume and injected i.v. with either C5 (2 nmoles). For competition studies, mice were injected with the acetazolamide (10 mg/kg) followed 60 minutes later by compound C5 (2 nmoles). Imaging was performed 24 hours after administration of the agents using the FMT 2500.

[3] = Biodistribution of i.v. administered compound in HeLa tumor bearing mice; assay type: in vivo; conditions: 2 nmoles i.v., 24 hr, excised tissues, reflectance mode
Protocol: Female NU/NU mice 6-8 weeks old (Charles River Laboratory, Wilmington, MA) were injected subcutaneously (s.c.) with HeLa cells (5×10^6) in the first mammary fat pads. Once tumors reached the desired volume (measured with calipers using the formula volume mm^3=(length×width^2)/2), mice were injected i.v. with compound C5 (2 nmoles) or nonbinding control D3. Mice were sacrificed by carbon dioxide asphyxiation 24 hr later and certain tissues removed, rinsed with saline, blotted dry, and the imaged on a VisEn FMT 2500 using the reflectance mode. Regions of interest (ROIs) were drawn around each organ using the FMT Software and the mean fluorescence (reported as counts/energy) determined for each organ and normalized to the mean fluorescence in tumors taken to be 100%.

[4] = tested on: HeLa tumors; experiment: Detection of in vivo induction of hypoxia in mice with HeLa tumors (FRI of excised tumors); conditions: 2 nmol i.v., tumors excised and imaged by FRI 24 hours after injection
Protocol: Female nu/nu mice at 4-5 weeks old, obtained from (Harlan Laboratory, Indianapolis, IN) were injected subcutaneously (s.c.) with HeLa cells (1.5×10^6 cells/site) in the mammary fat pads. Once tumors reached the desired volume of 600-700 mm^3 (measured with calipers using the formula volume mm^3=length×width^2/2), mice were grouped randomly (n=4-5 mice/group) for with some exposed to controlled hypoxic environmental conditions (8% oxygen) in a chamber with monitored oxygen levels. Control mice with matched tumor volumes were maintained under normal housing conditions. C5, (2 nmol) was injected intravenously to all mice at 24 hours after the initiation of the experiment. Hypoxic mice were placed back into the hypoxic chamber after the injection, and tumors were excised and imaged by fluorescence reflectance imaging (FRI) 24 hours following injection. FIGS. 6A-B show fluorescence images of the excised tumors from mice that were placed in normal air (left) and 8% 02 (right).

SMILES: CC1(C)C(/C=C/C(=C/C=C2/N(CCCS(=O)(=O)O)c3ccc4c(S(=O)(=O)O)cc(S(=O)(=O)O)cc4c3C2(C)C)c2ccc(C(=O)NCCC(=O)Nc3nnc(S(N)(=O)=O)s3)cn2)=[N+](CCCS(=O)(=O)[O-])c2ccc3c(S(=O)(=O)O)cc(S(=O)(=O)O)cc3c21 [Compound C5, 3-(2-((1E,3Z,5E)-5-(1,1-dimethyl-6,8-disulfo-3-(3-sulfopropyl)-1H-benzo[e]indol-2(3H)-ylidene)-3-(5-((3-oxo-3-((5-sulfamoyl-1,3,4-thiadiazol-2-yl)amino)propyl)carbamoyl)pyridin-2-yl)penta-1,3-dien-1-yl)-1,1-dimethyl-6,8-disulfo-1H-benzo[e]indol-3-ium-3-yl)propane-1-sulfonate]
- tumor signal by planar reflectance and tomographic imaging [1]: tumors can be imaged effectively
- accumulation in tumors as quantified by FMT (FIG. 5B) ([2]; 2 nmoles i.v., no acetazolamide): 116 pmol
- accumulation in tumors as quantified by FMT (FIG. 5B) ([2]; acetazolamide 10 mg/kg 60 minutes before agent (2 nmoles i.v.)): 39 pmol
- tumor signal in tomographic images after acetazolamide compared to untreated animals (FIG. 5A) ([2]; acetazolamide 10 mg/kg 60 minutes before agent (2 nmoles i.v.), imaging at 24 hours): reduced signal
- less tumor signal in acetazolamide treated animals ([2]; acetazolamide 10 mg/kg 60 minutes before agent, versus untreated): approximately 66%
- tissue fluorescence (biodistribution), normalized to tumors (FIG. 4) [3]: very low in most tissues with the high concentrations found in tumors, and lower concentrations accumulated in the kidneys
- uptake in excised tumors, hypoxic atmosphere (8% oxygen) versus normal air (FIGS. 6A-B) [4]: significantly greater uptake
